Where two headings read alike, the source gives them in different places.
How the values were obtained:
[1] = system: mouse melanocyte cell line (B16); assay: DNA adduct assay (13C tyrosine enrichment, isotope ratio mass spectrometry); format: cell-based; conditions: B16 cells, 300 μM PTU immediately after 20 min full spectrum UV, 5 μM 13C tyrosine 1 hour after UV, DNA isolated after 4 hours
Method: FIG. 4 is a graph illustrating a DNA adduct assay. Mouse melanocyte cell line (B16) was incubated with 300 μM phenylthiourea (PTU) immediately after ultraviolet (UV) radiation exposure. After 20 minutes of full spectrum ultraviolet (UV) radiation exposure, 5 μM ^13C tyrosine was added 1 hour after ultraviolet (UV) radiation exposure. After 4 hours, DNA was isolated and adducts determined as an increase in ^13C enrichment over baseline after combustion and isotope ratio mass spectrometry.

[2] = system: mouse melanocyte cell line (B16); assay: Melanocyte survival by trypan blue exclusion after solar simulated UV exposure; format: cell-based; conditions: for Melanocyte survival (viability) in ultraviolet (UV) exposed cells: 20 min solar simulated UV (~15 MEDS), increasing doses of inhibitor after exposure, trypan blue exclusion 24 hours after UV
Method: FIG. 3 is a graph illustrating death of melanocytes with tyrosinase inhibitors applied subsequent to ultraviolet (UV) radiation exposure. The graph illustrates results from a study conducted with mice melanocyte cell line (B16). The mouse melanocyte cell line (B16) was exposed to solar simulated ultraviolet (UV) radiation for 20 minutes. The solar ultraviolet (UV) radiation was simulated using a 300 W Xe solar simulator, equivalent to approximately 15 Minimal Erythemal Doses (MEDS), or equivalent to strong sunburn. After ultraviolet (UV) radiation exposure, cells were treated with increasing doses of the following tyrosinase inhibitors: kojic acid (shown in FIG. 3A) and methyl gentisate (shown in FIG. 3B). Melanocyte survival was determined by trypan blue exclusion 24 hours after ultraviolet (UV) radiation exposure. It was shown that there was no effect of tyrosinase inhibitors on the survival in non-ultraviolet (UV) exposed cells (not shown in FIG. 3). […] Preventing quinones from passing out of the melanosome substantially protects melanocytes from DNA damage.

SMILES	DNA adducts (13C enrichment over baseline, delta value) [1]	Melanocyte survival in non-ultraviolet (UV) exposed cells [2]	Melanocyte survival (viability) in ultraviolet (UV) exposed cells ([2]; B16 cells)	Melanocyte survival in non-ultraviolet (UV) exposed cells ([2]; B16 cells, no UV exposure, trypan blue exclusion)
NC(=S)Nc1ccccc1 [PTU, phenylthiourea]	greatly decreases DNA adducts			
COC(=O)c1cc(O)ccc1O [methyl gentisate]		no effect	dose dependent increase in viability	
O=c1cc(CO)occ1O [kojic acid]			dose dependent increase in viability	no effect

Source: US20110021623A1, “SYSTEM AND METHODS OF MELANOMA PREVENTION” (Regents of the University of New Mexico, priority 2006, published 2011)
